{"source": "patent US9249180B2", "about": "“C-3 alkyl and alkenyl modified betulinic acid derivatives” (priority 2013, dated 2016)", "system": "recombinant NL4-3 virus (Renilla luciferase in nef, Gag P373S; NLRluc) in MT-2 cells", "assay": "HIV Cell Culture Assay (luciferase reporter, antiviral activity)", "assay_type": "cell-based", "settings": "serial dilutions of the inhibitor", "experimental": "HIV Cell Culture Assay—MT-2 cells and 293T cells were obtained from the NIH AIDS Research and Reference Reagent Program. MT-2 cells were propagated in RPMI 1640 media supplemented with 10% heat inactivated fetal bovine serum, […]. The 293T cells were propagated in DMEM media supplemented with 10% heat inactivated fetal bovine serum (FBS), 100 units/ml penicillin G and 100 μg/ml streptomycin. The proviral DNA clone of NL4-3 was obtained from the NIH AIDS Research and Reference Reagent Program. A recombinant NL4-3 virus, in which a section of the nef gene from NL4-3 was replaced with the Renilla luciferase gene, was used as a reference virus. In addition, residue Gag P373 was converted to P373S. Briefly, the recombinant virus was prepared by transfection of the altered proviral clone of NL4-3. Transfections were performed in 293T cells using LipofectAMINE PLUS from Invitrogen (Carlsbad, Calif.), according to manufacturer's instruction. The virus was titered in MT-2 cells using luciferase enzyme activity as a marker. Luciferase was quantitated using the Dual Luciferase kit from Promega (Madison, Wis.), with modifications to the manufacturer's protocol. The diluted Passive Lysis solution was pre-mixed with the re-suspended Luciferase Assay Reagent and the re-suspended Stop & Glo Substrate (2:1:1 ratio). Fifty (50) μL of the mixture was added to each aspirated well on assay plates and luciferase activity was measured immediately on a Wallac TriLux (Perkin-Elmer). Antiviral activities of inhibitors toward the recombinant virus were quantified by measuring luciferase activity in cells infected for 4-5 days with NLRluc recombinants in the presence serial dilutions of the inhibitor.", "key": {"[1]": {"settings": "Renilla, NL43, MT-2 cells infected for 4-5 days with NLRluc recombinants"}}}
{"molecule": "C=C(C)[C@@H]1CC[C@]2(NCCN3CCC(S(C)(=O)=O)CC3)CC[C@]3(C)[C@H](CC[C@@H]4[C@@]5(C)CC=C(C=C6CCC(F)(C(=O)O)CC6)C(C)(C)[C@@H]5CC[C@]43C)[C@@H]12", "note": "(mixture of isomers) [Example B3, 1-fluoro-4-(((1R,3aS,5aR,5bR,7aR,11aS,11bR,13aR,13bR)-5a,5b,8,8,11a-pentamethyl-3a-((2-(4-(methylsulfonyl)piperidin-1-yl)ethyl)amino)-1-(prop-1-en-2-yl)-2,3,3a,4,5,5a,5b,6,7,7a,8,11,11a,11b,12,13,13a,13b-octadecahydro-1H-cyclopenta[a]chrysen-9-yl)methylene)cyclohexanecarboxylic acid]", "values": [{"measurement": "EC50", "setting": "[1]", "value": 4.49, "unit": "nM"}]}
{"molecule": "C=C(C)[C@@H]1CC[C@]2(NCCN3CCS(=O)(=O)CC3)CC[C@]3(C)[C@H](CC[C@@H]4[C@@]5(C)CC=C(CC6CCCC(C(=O)O)C6)C(C)(C)[C@@H]5CC[C@]43C)[C@@H]12", "note": "(single isomer, unassigned) [Example 2]", "values": [{"measurement": "EC50", "setting": "[1]", "value": 2, "unit": "nM"}]}
{"molecule": "C=C(C)[C@@H]1CC[C@]2(NCCN3CCS(=O)(=O)CC3)CC[C@]3(C)[C@H](CC[C@@H]4[C@@]5(C)CC=C(CC6CCCC(C(=O)O)C6)C(C)(C)[C@@H]5CC[C@]43C)[C@@H]12", "note": "(single isomer, unassigned) [Example 3]", "values": [{"measurement": "EC50", "setting": "MT-2 cells infected for 4-5 days with NLRluc recombinants", "value": 1.72, "unit": "nM"}]}
{"molecule": "C=C(C)[C@@H]1CC[C@]2(NCCN3CCS(=O)(=O)CC3)CC[C@]3(C)[C@H](CC[C@@H]4[C@@]5(C)CC=C(CC6CCC(C(=O)O)CC6)C(C)(C)[C@@H]5CC[C@]43C)[C@@H]12", "note": "(stereo partly drawn) [Example 1, 4-(((1R,3aS,5aR,5bR,7aR,11aS,11bR,13aR,13bR)-3a-((2-(1,1-dioxidothiomorpholino)ethyl)amino)-5a,5b,8,8,11a-pentamethyl-1-(prop-1-en-2-yl)-2,3,3a,4,5,5a,5b,6,7,7a,8,11,11a,11b,12,13,13a,13b-octadecahydro-1H-cyclopenta[a]chrysen-9-yl)methyl)cyclohexanecarboxylic acid]", "values": [{"measurement": "EC50", "setting": "[1]", "value": 2.96, "unit": "nM"}]}
{"molecule": "C=C(C)[C@@H]1CC[C@]2(NCCN3CCS(=O)(=O)CC3)CC[C@]3(C)[C@H](CC[C@@H]4[C@@]5(C)CC=C(CCCCC(=O)O)C(C)(C)[C@@H]5CC[C@]43C)[C@@H]12", "note": "[Example 4, 5-((1R,3aS,5aR,5bR,7aR,11aS,11bR,13aR,13bR)-3a-((2-(1,1-dioxidothiomorpholino)ethyl)amino)-5a,5b,8,8,11a-pentamethyl-1-(prop-1-en-2-yl)-2,3,3a,4,5,5a,5b,6,7,7a,8,11,11a,11b,12,13,13a,13b-octadecahydro-1H-cyclopenta[a]chrysen-9-yl)pentanoic acid]", "values": [{"measurement": "EC50", "setting": "[1]", "value": 2.27, "unit": "nM"}]}
{"molecule": "C=C(C)[C@@H]1CC[C@]2(NCCN3CCS(=O)(=O)CC3)CC[C@]3(C)[C@H](CC[C@@H]4[C@@]5(C)CC=C(CCCC(C(=O)O)C(=O)O)C(C)(C)[C@@H]5CC[C@]43C)[C@@H]12", "note": "[Example 5, 2-(3-((1R,3aS,5aR,5bR,7aR,11aS,11bR,13aR,13bR)-3a-((2-(1,1-dioxidothiomorpholino)ethyl)amino)-5a,5b,8,8,11a-pentamethyl-1-(prop-1-en-2-yl)-2,3,3a,4,5,5a,5b,6,7,7a,8,11,11a,11b,12,13,13a,13b-octadecahydro-1H-cyclopenta[a]chrysen-9-yl)propyl)malonic acid]", "values": [{"measurement": "EC50", "setting": "[1]", "value": 310, "unit": "nM"}]}
{"molecule": "C=C(C)[C@@H]1CC[C@]2(NCCN3CCS(=O)(=O)CC3)CC[C@]3(C)[C@H](CC[C@@H]4[C@@]5(C)CC=C(CCC(C)(C)CC(=O)O)C(C)(C)[C@@H]5CC[C@]43C)[C@@H]12", "note": "[Example 6, 5-((1R,3aS,5aR,5bR,7aR,11aS,11bR,13aR,13bR)-3a-((2-(1,1-dioxidothiomorpholino)ethyl)amino)-5a,5b,8,8,11a-pentamethyl-1-(prop-1-en-2-yl)-2,3,3a,4,5,5a,5b,6,7,7a,8,11,11a,11b,12,13,13a,13b-octadecahydro-1H-cyclopenta[a]chrysen-9-yl)-3,3-dimethylpentanoic acid]", "values": [{"measurement": "EC50", "setting": "[1]", "value": 1.38, "unit": "nM"}]}
{"molecule": "C=C(C)[C@@H]1CC[C@]2(NCCN3CCS(=O)(=O)CC3)CC[C@]3(C)[C@H](CC[C@@H]4[C@@]5(C)CC=C(CCCC(C)(C)C(=O)O)C(C)(C)[C@@H]5CC[C@]43C)[C@@H]12", "note": "[Example 7, 5-((1R,3aS,5aR,5bR,7aR,11aS,11bR,13aR,13bR)-3a-((2-(1,1-dioxidothiomorpholino)ethyl)amino)-5a,5b,8,8,11a-pentamethyl-1-(prop-1-en-2-yl)-2,3,3a,4,5,5a,5b,6,7,7a,8,11,11a,11b,12,13,13a,13b-octadecahydro-1H-cyclopenta[a]chrysen-9-yl)-2,2-dimethylpentanoic acid]", "values": [{"measurement": "EC50", "setting": "[1]", "value": 5.3, "unit": "nM"}]}
{"molecule": "C=C(C)[C@@H]1CC[C@]2(NCCN3CCS(=O)(=O)CC3)CC[C@]3(C)[C@H](CC[C@@H]4[C@@]5(C)CC=C(CC6CCC(OCC)(C(=O)O)CC6)C(C)(C)[C@@H]5CC[C@]43C)[C@@H]12", "note": "(stereo partly drawn) [Example 8, 4-(((1R,3aS,5aR,5bR,7aR,11aS,11bR,13aR,13bR)-3a-((2-(1,1-dioxidothiomorpholino)ethyl)amino)-5a,5b,8,8,11a-pentamethyl-1-(prop-1-en-2-yl)-2,3,3a,4,5,5a,5b,6,7,7a,8,11,11a,11b,12,13,13a,13b-octadecahydro-1H-cyclopenta[a]chrysen-9-yl)methyl)-1-ethoxycyclohexanecarboxylic acid]", "values": [{"measurement": "EC50", "setting": "[1]", "value": 4.2, "unit": "nM"}]}
{"molecule": "C=C(C)[C@@H]1CC[C@]2(NCCN3CCS(=O)(=O)CC3)CC[C@]3(C)[C@H](CC[C@@H]4[C@@]5(C)CC=C(CC6CCC(OC)(C(=O)O)CC6)C(C)(C)[C@@H]5CC[C@]43C)[C@@H]12", "note": "(stereo partly drawn) [Example 9, 4-(((1R,3aS,5aR,5bR,7aR,11aS,11bR,13aR,13bR)-3a-((2-(1,1-dioxidothiomorpholino)ethyl)amino)-5a,5b,8,8,11a-pentamethyl-1-(prop-1-en-2-yl)-2,3,3a,4,5,5a,5b,6,7,7a,8,11,11a,11b,12,13,13a,13b-octadecahydro-1H-cyclopenta[a]chrysen-9-yl)methyl)-1-methoxycyclohexanecarboxylic acid]", "values": [{"measurement": "EC50", "setting": "[1]", "value": 3.7, "unit": "nM"}]}
{"molecule": "C=C(C)[C@@H]1CC[C@]2(NCCN3CCS(=O)(=O)CC3)CC[C@]3(C)[C@H](CC[C@@H]4[C@@]5(C)CC=C(CCCCCC(=O)O)C(C)(C)[C@@H]5CC[C@]43C)[C@@H]12", "note": "[Example 10, 6-((1R,3aS,5aR,5bR,7aR,11aS,11bR,13aR,13bR)-3a-((2-(1,1-dioxidothiomorpholino)ethyl)amino)-5a,5b,8,8,11a-pentamethyl-1-(prop-1-en-2-yl)-2,3,3a,4,5,5a,5b,6,7,7a,8,11,11a,11b,12,13,13a,13b-octadecahydro-1H-cyclopenta[a]chrysen-9-yl)hexanoic acid]", "values": [{"measurement": "EC50", "setting": "[1]", "value": 3.1, "unit": "nM"}]}
{"molecule": "C=C(C)[C@@H]1CC[C@]2(NCCN3CCS(=O)(=O)CC3)CC[C@]3(C)[C@H](CC[C@@H]4[C@@]5(C)CC=C(CCCC(=O)O)C(C)(C)[C@@H]5CC[C@]43C)[C@@H]12", "note": "[Example 11, 4-((1R,3aS,5aR,5bR,7aR,11aS,11bR,13aR,13bR)-3a-((2-(1,1-dioxidothiomorpholino)ethyl)amino)-5a,5b,8,8,11a-pentamethyl-1-(prop-1-en-2-yl)-2,3,3a,4,5,5a,5b,6,7,7a,8,11,11a,11b,12,13,13a,13b-octadecahydro-1H-cyclopenta[a]chrysen-9-yl)butanoic acid]", "values": [{"measurement": "EC50", "setting": "[1]", "value": 10, "unit": "nM"}]}
{"molecule": "C=C(C)[C@@H]1CC[C@]2(NCCN3CCS(=O)(=O)CC3)CC[C@]3(C)[C@H](CC[C@@H]4[C@@]5(C)CC=C(CCC(C)(C)CC(=O)NO)C(C)(C)[C@@H]5CC[C@]43C)[C@@H]12", "note": "[Example 12, 5-((1R,3aS,5aR,5bR,7aR,11aS,11bR,13aR,13bR)-3a-((2-(1,1-dioxidothiomorpholino)ethyl)amino)-5a,5b,8,8,11a-pentamethyl-1-(prop-1-en-2-yl)-2,3,3a,4,5,5a,5b,6,7,7a,8,11,11a,11b,12,13,13a,13b-octadecahydro-1H-cyclopenta[a]chrysen-9-yl)-N-hydroxy-3,3-dimethylpentanamide]", "values": [{"measurement": "EC50", "setting": "[1]", "value": 2, "unit": "nM"}]}
{"molecule": "C=C(C)[C@@H]1CC[C@]2(NCCN3CCS(=O)(=O)CC3)CC[C@]3(C)[C@H](CC[C@@H]4[C@@]5(C)CC=C(CCC(C)(C)CC(=O)NOC)C(C)(C)[C@@H]5CC[C@]43C)[C@@H]12", "note": "[Example 13, 5-((1R,3aS,5aR,5bR,7aR,11aS,11bR,13aR,13bR)-3a-((2-(1,1-dioxidothiomorpholino)ethyl)amino)-5a,5b,8,8,11a-pentamethyl-1-(prop-1-en-2-yl)-2,3,3a,4,5,5a,5b,6,7,7a,8,11,11a,11b,12,13,13a,13b-octadecahydro-1H-cyclopenta[a]chrysen-9-yl)-N-methoxy-3,3-dimethylpentanamide]", "values": [{"measurement": "EC50", "setting": "[1]", "value": 30, "unit": "nM"}]}
